Source: US5232633A, “Sulfoethyl carbonate wetting agents and their use in detergent compositions” (priority 1992, dated 1993)
Like-named read-outs stand apart in the source and are kept apart here.

Key:
zein = test system: zein; set-up: species or system maize
Method: Specifically, the lower the amount of zein protein dissolved, usually the milder a surfactant is. Conversely, the more zein dissolved, typically the more irritating the surfactant is. In order to test irritancy potential, a 1% solution of surfactant (30 mls) was added to 1.5 g zein and stirred at room temperature for 1 hr. Residual zein was collected and dried to constant weight. Differences between starting and residual weights were used to calculate % zein dissolved.

[1] = Critical micelle concentration by surface tension (Wilhemy plate method); format: physicochemical
From the text: The CMC is defined as the concentration of a surfactant at which it begins to form micelles in solution rather than precipitate. Specifically, materials that contain both a hydrophobic group and a hydrophilic group, (such as surfactants), will tend to distort the structure of the solvent (i.e, water) they are in and, therefore, increase the free energy of the system. They therefore, concentrate at the surface, whereby orienting so that their hydrophobic groups are directed away from the solvent, the free energy of the solution is minimized. Another means of minimizing the free energy can be achieved by the aggregation of these surface-active molecules into clusters or micelles with their hydrophobic groups directed toward the interior of the cluster and their hydrophilic groups directed toward the solvent.
The value of the CMC is determined by surface tension measurements using the Wilhemy plate method. While not wishing to be bound by theory, it is believed that a low CMC is a measure of surface activity (i.e, lower CMC of one surfactant versus another indicates the surfactant with lower CMC is more surface active). In this regard, it is believed that lower CMC signifies that lesser amounts of a surfactant are required to provide the same surfactancy benefits as a surfactant with higher CMC.

[2] = Hydrolytic stability at pH 9, 40° C. by reverse phase HPLC; format: physicochemical; settings: 5×10^-4 M in NaHCO3 buffer with 5% CH3CN, 500 µM
[3] = Calcium ion sensitivity, modified Hart method; format: physicochemical; settings: for Ca + 2 Needed for Prec.: titration with calcium ion solution, visual cloudiness endpoint
Method: The surfactant solution was titrated with a calcium ion solution. The endpoint was determined by visual observation of the cloudiness of the surfactant solution.

[4] = Krafft point of 1% dispersion of surfactant in water; format: physicochemical; settings: for Krafft Pt.: 1% dispersion in water; for Krafft point (in words): compared with SLI
Method: The temperature at and above which surfactants begin to form micelles instead of precipitates is referred to as Krafft point (Tk) and at this temperature the solubility of an ionic surfactant becomes equal to its CMC.
Krafft point was measured by preparing a 1% dispersion of the surfactant in water. If the surfactant was soluble at room temperature, the solution was cooled to 0° C. […] If it precipitated out, the solution was slowly warmed with stirring in a water bath. The temperature at which the precipitate dissolved was determined to be the Krafft point.
If the Krafft point was above room temperature, the solution was first heated rapidly to dissolve all the surfactant. It was then cooled until precipitation occurred, and was then slowly warmed to determine the Krafft point described above.

[5] = Foam height, Ross-Miles method; format: physicochemical; settings: 45° C., water with 120 ppm calcium hardness; for Foam Ht., 10 min Ht.: after 10 minutes
[6] = 1% solution of surfactant (30 mls), 1.5 g zein, room temperature, 1 hr

CMC [1] [mM] | Hydrolytic Stability, t 1/2 [2] | Ca + 2 Needed for Prec. [3] [ppm] | Krafft Pt. [4] [°C] | Foam Ht., 10 min Ht. [5] | % Zein Solub. (zein; [6]) [%] | Foam Ht., Initial Ht. [5] | SMILES | % Zein Solub. (zein) [%] | Calcium sensitivity (in words) ([3]; compared with non-carbonated isethionate (SLI)) | Krafft point (in words) [4]
1.46 | 1030 h | 725 | 0 | 142 mm | 41 | 166 mm | CCCCCCCCCCCCOC(=O)OC(CC)CS(=O)(=O)O (stereo not shown) [S2DBC, Sodium 2-(1-sulfo)butyl dodecyl carbonate] |  |  | 
3.7 to 4.0 | 223 h | > 2700 | 0 | 160 mm | 47 | 162 mm | CCCCCCCCCCC(C)OC(=O)OCCS(=O)(=O)O (stereo not shown) [SE2DC, Sodium 2-sulfoethyl 2-dodecylcarbonate] |  |  | 
 |  |  |  | 160 mm | 25 | 165 mm | CCCCCCCCCCCCOCCOCCOC(=O)OCCS(=O)(=O)O [SED(2EO)C, Sodium 2-sulfoethyl dodecyl (2EO) carbonate] |  |  | 
 |  |  |  | 152 mm | 17 | 158 mm | CCCCCCCCCCCCOCCOCCOCCOCCOC(=O)OCCS(=O)(=O)O [SED(4EO)C, Sodium 2-sulfoethyl dodecyl (4EO) carbonate] |  |  | 
2.6 to 2.8 | ≈ 70 Days | 2500 | 30 | 149 mm | 49 | 156 mm | CCCCCCCCCCC(C)OC(=O)OC(C)CS(=O)(=O)O (stereo not shown) [SI2DC, Sodium 2-sulfoisopropyl 2-dodecyl carbonate] |  |  | higher
2.39 | 286 h | 2000 | 15 | 161 mm | 51 | 165 mm | CCCCCCCCCCCCOC(=O)OC(C)CS(=O)(=O)O (stereo not shown) [SIDC, Sodium 2-sulfoisopropyl dodecyl carbonate] |  |  | 
6.2 | 24 h | 51 | 24 | negligible |  | negligible | CCCCCCCCCCCC(=O)OCCS(=O)(=O)O [SLI, sodium lauroyl isethionate, reference compound] |  |  | 

SMILES | CMC [1] [mM] | Hydrolytic Stability, t 1/2 [2] | Ca + 2 Needed for Prec. [3] [ppm] | Krafft Pt. [4] [°C] | Foam Ht., 10 min Ht. [5] | % Zein Solub. (zein; [6]) [%] | Foam Ht., Initial Ht. [5] | % Zein Solub. (zein) [%] | Calcium sensitivity (in words) ([3]; compared with non-carbonated isethionate (SLI)) | Krafft point (in words) [4]
CCCCCCCCCCCCOC(=O)OCCS(=O)(=O)O.[Na] | 2.52 | 55.2 h | 150 | 24 | 149 mm |  |  | 49 | greater calcium insensitivity than the ester SLI | same Krafft point as the SLI
